From patent publication US10744173B2, “Traditional Chinese medicine compositions for alleviating stress” (Infinitus (China) Company Ltd., priority 2017, dated 2020)

What was measured:
Type in all cases: in vivo
[1] = system: corticotropin-releasing hormone (CRH); experiment: Neurotransmitter measurement by ELISA: CRH; settings: trunk blood
Protocol: (§1) The rats were housed in individual cages with light and temperature control (temperature: 21±2° C.; lights on at 8:00 AM and off at 8:00 PM). Food and water were available ad libitum. All experimental procedures were carried out in strict accordance with the National Institutes of Health guidelines for care and use of experimental animals. After an initial habituation period of 1 week, all animals were given access to bottle containing a sucrose solution in tap water for 1 hour and were tested for the baseline data of the sucrose preference test. According to the baseline data, the animals were divided into 9 groups (n=10-12 animals/each group), that is the control group, the stressed group, the stressed+fluoxetine group, the stressed+Example 1 group, the stressed+ginseng extract group, the stressed+Radix paeoniae Alba extract group, the stressed+Tree Peony Bark extract group, the stressed+Sharpleaf Galangal Fruit extract group, and the stressed+Radix Polygonum multiflorum Preparata extract group. The animals were subjected to 2 to 5 different mild stressors per day for 5 weeks. The mild stressors included water and food deprivation, cage tilt, continuously lighting, cage soiling, stroboscopic lighting, restricted access to food, and tail pinching. Control animals were not subjected to the stress protocol, and the stressed animals were subjected to the mild stressors and given the same amount of water as control group. The animals of the stressed+fluoxetine group were subjected to the mild stressors and treated with fluoxetine capsules. The animals of the stressed+Example 1 group were subjected to the mild stressors and treated with the composition of Example 1. The animals of the stressed+single extract group were subjected to the mild stressors and treated with the single extract.
(§2) The rats were sacrificed and the trunk blood was collected into the collection tubes coated with standard heparin. […] The levels of corticotropin-releasing hormone (CRH), adrenocorticotropic hormone (ACTH) and cortisol (CORT) were detected by ELISA. […]

[2] = system: adrenocorticotropic hormone (ACTH); experiment: Neurotransmitter measurement by ELISA: ACTH; settings: trunk blood
Protocol: as §1, §2

CRH, ACTH and CORT = experiment: Neurotransmitter measurement, overall statement on CRH, ACTH and CORT; settings: chronically stressed rats
Protocol: The rats were housed in individual cages with light and temperature control (temperature: 21±2° C.; lights on at 8:00 AM and off at 8:00 PM). Food and water were available ad libitum. All experimental procedures were carried out in strict accordance with the National Institutes of Health guidelines for care and use of experimental animals. After an initial habituation period of 1 week, all animals were given access to bottle containing a sucrose solution in tap water for 1 hour and were tested for the baseline data of the sucrose preference test. According to the baseline data, the animals were divided into 9 groups (n=10-12 animals/each group), that is the control group, the stressed group, the stressed+fluoxetine group, the stressed+Example 1 group, the stressed+ginseng extract group, the stressed+Radix paeoniae Alba extract group, the stressed+Tree Peony Bark extract group, the stressed+Sharpleaf Galangal Fruit extract group, and the stressed+Radix Polygonum multiflorum Preparata extract group. The animals were subjected to 2 to 5 different mild stressors per day for 5 weeks. […]
as §2

cortisol (CORT) = experiment: Neurotransmitter measurement by ELISA: CORT; settings: trunk blood
Protocol: as §1, §2

[3] = system: chronically stressed rats; experiment: Sucrose preference test in chronically stressed rats
Protocol: as §1
The rats could select between two bottles of liquid freely, one with 0.8% sucrose solution and one with tap water, after 23 h food and water deprivation. To avoid the rats prefer to drink one side of the water, the position of the two bottles were exchanged every half an hour. Tap water consumption and sucrose consumption were measured by weighting the bottles, and the sucrose preference were calculated based on the following formula: […]
The rats were housed in individual cages with light and temperature control (temperature: 21±2° C.; lights on at 8:00 AM and off at 8:00 PM). Food and water were available ad libitum. All experimental procedures were carried out in strict accordance with the National Institutes of Health guidelines for care and use of experimental animals. After an initial habituation period of 1 week, all animals were given access to bottle containing a sucrose solution in tap water for 1 hour and were tested for the baseline data of the sucrose preference test. […]

[4] = Comparative study (Comparative Examples 1-7), chronically stressed rats
[5] = Experimental Example 1, chronically stressed rats
[6] = Experimental Example 2, chronically stressed rats

Structure (SMILES): CNCCC(Oc1ccc(C(F)(F)F)cc1)c1ccccc1 (centres unmarked) [fluoxetine]
- CRH [1, 4]: 5.11 ± 0.29 ng/mL
- CRH [1, 5]: 5.13 ± 0.25 ng/mL
- CRH [1, 6]: 5.13 ± 0.25 ng/mL
- ACTH [2, 4]: 32.73 ± 2.66 pg/mL
- ACTH [2, 5]: 33.83 ± 2.26 pg/mL
- ACTH [2, 6]: 33.83 ± 2.26 pg/mL
- Effect on the abnormal levels of CRH, ACTH and CORT caused by chronic stress (in words) (CRH, ACTH and CORT): improve the abnormal levels of CRH, ACTH and CORT
- CORT (cortisol (CORT); [4]): 52.46 ± 6.05 ng/mL
- CORT (cortisol (CORT); [5]): 52.09 ± 5.95 ng/mL
- CORT (cortisol (CORT); [6]): 52.09 ± 5.95 ng/mL
- Sucrose Preference ([3]; Comparative study (Comparative Example 1-7), mild stressors for 5 weeks, 0.8% sucrose vs tap water): 0.7502 ± 0.0471
- Sucrose Preferenc ([3]; Experimental Example 1, mild stressors for 5 weeks, 0.8% sucrose vs tap water): 0.7431 ± 0.0565
- Sucrose Preference ([3]; Experimental Example 2, mild stressors for 5 weeks, 0.8% sucrose vs tap water): 0.7431 ± 0.0565
- Change of sucrose preference compared with the stressed group (in words) ([3]; compared with the stressed group): significantly increase the sucrose preference
